Columns and labels:
sigma (σ) receptors = conditions: cited from earlier work
[1] = molecular target: 5HT2B serotonergic receptor (Homo sapiens, UniProt P41595); experiment: PDSP radioligand binding, 5HT2B; conditions: full concentration-response curves, n = 3-6 unless noted
[2] = system: 41 diverse receptors, channels and a transporter; experiment: PDSP broad screen: summary of off-target interactions; conditions: besides 5HT2B and 5HT2C
[3] = molecular target: T1, 5HT2C serotonergic receptor (Homo sapiens, UniProt P28335); experiment: PDSP radioligand binding, 5HT2C; conditions: full concentration-response curves, n = 3-6 unless noted
T1 sequence (P28335 33-458): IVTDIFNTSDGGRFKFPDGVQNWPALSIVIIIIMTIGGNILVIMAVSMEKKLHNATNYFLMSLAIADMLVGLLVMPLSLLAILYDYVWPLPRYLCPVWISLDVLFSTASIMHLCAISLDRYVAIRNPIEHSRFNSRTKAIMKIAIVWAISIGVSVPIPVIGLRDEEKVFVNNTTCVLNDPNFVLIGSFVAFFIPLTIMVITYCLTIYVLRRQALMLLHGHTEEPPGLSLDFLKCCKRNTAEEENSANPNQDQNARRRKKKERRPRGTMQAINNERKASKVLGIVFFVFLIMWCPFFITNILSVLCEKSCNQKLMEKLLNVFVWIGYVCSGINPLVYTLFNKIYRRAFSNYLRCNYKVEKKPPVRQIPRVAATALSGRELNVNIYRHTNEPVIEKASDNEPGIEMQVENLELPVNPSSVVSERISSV

[4] = system: peripheral cholecystokinin receptors; conditions: cited from earlier work

Chain of 5HT2B serotonergic receptor (P41595 whole entry): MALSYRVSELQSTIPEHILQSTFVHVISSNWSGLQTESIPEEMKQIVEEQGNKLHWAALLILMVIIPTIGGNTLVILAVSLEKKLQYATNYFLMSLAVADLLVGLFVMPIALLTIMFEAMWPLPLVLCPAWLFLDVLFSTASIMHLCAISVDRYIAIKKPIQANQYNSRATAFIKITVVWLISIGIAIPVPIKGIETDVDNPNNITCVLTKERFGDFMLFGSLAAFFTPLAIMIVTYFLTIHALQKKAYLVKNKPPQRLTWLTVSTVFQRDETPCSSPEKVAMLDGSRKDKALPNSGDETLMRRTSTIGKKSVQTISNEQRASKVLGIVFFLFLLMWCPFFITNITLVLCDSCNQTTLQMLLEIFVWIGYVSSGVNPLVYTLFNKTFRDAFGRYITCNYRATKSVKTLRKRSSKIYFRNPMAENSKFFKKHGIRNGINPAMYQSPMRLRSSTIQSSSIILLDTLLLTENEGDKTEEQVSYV

Q: What does the source list for `CNC(=O)[C@H]1O[C@@H](n2cnc3c(NCc4cccc(I)c4)ncnc32)[C@H](O)[C@@H]1O` [IB-MECA, N ^6-(3-iodobenzyl)-5′-N-methylcarboxamidoadenosine]?
A: binding inhibition at 10 µM (sigma (σ) receptors): 50–70%; Ki [1]: 1.08 µM; other off-target interactions in pharmacological screening [2]: no other off-target interactions; Ki [3]: 5.42 µM; binding inhibition at 10 µM [4]: 50–70%
